Laboratory results taken from patent US12226395B2, “Composition for preventing or treating neurodegenerative diseases, containing diterpene-based compound” (KOREA RESEARCH INSTITUTE OF BIOSCIENCE AND BIOTECHNOLOGY, priority 2017, dated 2025).
Like-named read-outs stand apart in the source and are kept apart here.

How the values were obtained:
Type in all cases: cell-based
[1] = target: T1, Nurr1 (Homo sapiens, UniProt P43354); assay: Nurr1 activity, luciferase reporter analysis in transfected BE(2)C cells; conditions: for Nurr1 activity (luciferase), multiple of 0.1% DMSO control: BE(2)C cells, 20 hours
T1 construct: 3 types of plasmid DNA, including DNA containing Nurr1-LBD and DNA with β-galactosidase, were transfected into BE(2)C cells; expressed in transfected cells; host or cells: BE(2)C cells
T1 sequence (P43354 360-595 limits assumed): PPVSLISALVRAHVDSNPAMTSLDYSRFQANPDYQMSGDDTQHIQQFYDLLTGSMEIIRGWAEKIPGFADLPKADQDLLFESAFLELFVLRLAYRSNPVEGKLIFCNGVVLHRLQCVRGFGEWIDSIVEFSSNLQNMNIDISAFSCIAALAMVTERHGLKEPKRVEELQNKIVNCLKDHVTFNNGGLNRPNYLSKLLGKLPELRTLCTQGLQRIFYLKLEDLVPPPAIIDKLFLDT

[2] = target: T1, Nurr1; assay: as above; conditions: for Nurr1 activity (luciferase), multiple of 0.1% DMSO control: BE(2)C cells, 20 hours; remark: listed apart in the source
From the text: As in Example 2, Nurr1 activity according to the concentration of the diterpene isolated from the extract of Daphne genkwa was confirmed through luciferase analysis.
Specifically, after synthesizing a vector in which the gene having the nucleotide sequence (5′-CTCGGAGGACAGTACTCCG-3 SEQ ID NO:1) to which the GLA4 gene can bind is repeated 8 times to the reporter gene, luciferase, is synthesized, 3 types of plasmid DNA, including DNA containing Nurr1-LBD and DNA with β-galactosidase, were transfected into BE(2)C cells. After 6 hours, the compounds 1 to 10 separated in Example 2 were treated according to the concentrations in Table 1 below. The cells thus treated were cultured in a 5% carbon dioxide incubator at 37° C. for 20 hours, and then luciferase analysis was performed. As a control, 0.1% DMSO was used, and at this time, the activity was increased by multiple, and Amodiaquine was used as a positive control.

[3] = tested on: nitric oxide production in microglia BV-2 cells; assay: Inhibition of nitric oxide production in LPS-treated microglia BV-2 cells (Griess reagent); conditions: Mus musculus
From the text: The death of cranial nerve cells due to an inflammatory reaction in a microglia cell has been reported as one of the main causes of degenerative brain diseases such as dementia and Parkinson's disease. (Sarkar S et al., Neurotoxicology, 44, 250-262 (2014); Bower J H et al., Neurology, 67, 494-496 (2006)). Accordingly, the inhibition activity on nitric oxide production, a representative inflammatory factor, was investigated for the compounds isolated from Example 2 in a microglia. Specifically, microglia BV-2 cells were put into a 96-well plate at 5×10^4 cells/well, and cultured for 2 days, followed by incubation with LPS ([…]) for 24 hours with the compound isolated in Example 2 above. The culture supernatant was measured for absorbance at 540 nm using the Griess reagent to quantify nitrite to investigate the amount of nitric oxide production. Minocyline was used as a positive control.

[4] = High concentration = 1 μM (Table 1)
[5] = Low concentration = 0.01 μM (Table 1)
[6] = Mid concentration = 0.1 μM (Table 1)
[7] = BV-2 cells, LPS 24 hours, nitrite by Griess reagent, read-out: IC50, inhibition of nitric oxide production (Table 4)
[8] = High concentration = 10 μM (Table 1)
[9] = Low concentration = 0.1 μM (Table 1)
[10] = Mid concentration = 1 μM (Table 1)
[11] = BV-2, 24 h, read-out: IC50, inhibition of nitric oxide production (Table 4)

Row | SMILES | IC50 [3, 7] [nM] | Nurr1 activity (luciferase), multiple of 0.1% DMSO control [2, 8] | Nurr1 activity (luciferase), multiple of 0.1% DMSO control [2, 9] | Nurr1 activity (luciferase), multiple of 0.1% DMSO control [2, 10] | also measured
1 | CCN(CC)Cc1cc(Nc2ccnc3cc(Cl)ccc23)ccc1O [AQ, Amodiaquine, reference compound] |  |  |  |  | Nurr1 activity (luciferase), multiple of 0.1% DMSO control ([1]; Low concentration = 5 μM (Table 1)): 0.9; Nurr1 activity (luciferase), multiple of 0.1% DMSO control ([1]; Mid concentration = 20 μM (Table 1)): 1.8
2 | C=C(C)[C@@]12O[C@@]3(c4ccccc4)O[C@@H]1C1[C@@H]4O[C@]4(CO)[C@@H](O)[C@]4(O)C(=O)C(C)=CC4[C@@]1(O3)[C@H](C)[C@H]2OC(C)=O (stereo partly drawn) [Formula 1, (2S,3aR,3cS,4aR,5S,5aS,8bR,9R,10R,10aS)-5,5a-dihydroxy-4a-(hydroxymethyl)-7,9-dimethyl-6-oxo-2-phenyl-10a-(prop-1-en-2-yl)-3a,3b,3c,4a,5,5a,8a,9,10,10a-decahydro-6H-2,8b-epoxyoxireno[2″,3″:6′,7′]azuleno[5′,4′:3,4]benzo[1,2-d][1,3]dioxol-10-yl acetate] | 370 ± 150 |  |  |  | Nurr1 activity (luciferase), multiple of 0.1% DMSO control [2, 4]: 1.7; Nurr1 activity (luciferase), multiple of 0.1% DMSO control [2, 5]: 1.0; Nurr1 activity (luciferase), multiple of 0.1% DMSO control [2, 6]: 1.5
3 | C=C(C)[C@]12C[C@@H](C)[C@@]34O[C@](c5ccccc5)(O[C@@H]1C3[C@H](O)[C@@](O)(COC(=O)c1ccccc1)[C@@H](O)[C@@]1(O)C4C[C@H](C)[C@@H]1O)O2 (stereo partly drawn) [Formula 3, ((2S,3aR,4S,5S,6S,6aR,7S,8S,9bR,10R,11aR)-4,5,6,6a,7-pentahydroxy-8,10-dimethyl-2-phenyl-11a-(prop-1-en-2-yl)dodecahydro-5H-2,9b-epoxyazuleno[5′,4′:3,4]benzo[1,2-d][1,3]dioxol-5-yl)methyl benzoate] |  | 1.4 | 1.2 | 1.4 | IC50 [3, 11]: 1060 ± 120 nM
4 | C=C(C)[C@]12C[C@@H](C)[C@@]34O[C@](c5ccccc5)(O[C@@H]1C3[C@@H]1O[C@]1(COC(=O)c1ccccc1)[C@@H](O)[C@@]1(O)C4C[C@H](C)[C@@H]1O)O2 (stereo partly drawn) [Formula 4, ((2S,3aR,3cS,4aR,5S,5aR,6S,7S,8bR,9R,10aR)-5,5a,6-trihydroxy-7,9-dimethyl-2-phenyl-10a-(prop-1-en-2-yl)dodecahydro-4aH-2,8b-epoxyoxireno[2″,3″:6′,7′]azuleno[5′,4′:3,4]benzo[1,2-d][1,3]dioxol-4a-yl)methyl benzoate] |  | 1.7 | 1.0 | 1.4 | IC50 [3, 11]: 180 ± 40 nM
5 | C=C(C)[C@]1(O)C[C@@H](C)[C@@]2(O)C([C@H]1OC(=O)c1ccccc1)[C@H](O)[C@@](O)(COC(=O)c1ccccc1)[C@@H](O)[C@@]1(O)C2C[C@H](C)[C@@H]1O (stereo partly drawn) [Formula 5, ((2S,3S,3aR,4S,5S,6S,7R,8R,10R,10aR)-7-(benzoyloxy)-3,3a,4,5,6,8,10a-heptahydroxy-2,10-dimethyl-8-(prop-1-en-2-yl)tetradecahydrobenzo[e]azulen-5-yl)methyl benzoate] | 4670 ± 3100 | 1.9 | 0.9 | 1.2 | 
6 | C=C(C)[C@@]12O[C@@]3(c4ccccc4)O[C@@H]1C1[C@@H]4O[C@]4(CO)[C@@H](O)[C@]4(O)C(=O)[C@@H](C)CC4[C@@]1(O3)[C@H](C)[C@H]2OC(C)=O (stereo partly drawn) [Formula 6, (2S,3aR,3cS,4aR,5S,5aS,7S,8bR,9R,10R,10aS)-5,5a-dihydroxy-4a-(hydroxymethyl)-7,9-dimethyl-6-oxo-2-phenyl-10a-(prop-1-en-2-yl)dodecahydro-6H-2,8b-epoxyoxireno[2″,3″:6′,7′]azuleno[5′,4′:3,4]benzo[1,2-d][1,3]dioxol-10-yl acetate] | 250 ± 60 |  |  |  | Nurr1 activity (luciferase), multiple of 0.1% DMSO control [2, 4]: 2.4; Nurr1 activity (luciferase), multiple of 0.1% DMSO control [2, 5]: 1.0; Nurr1 activity (luciferase), multiple of 0.1% DMSO control [2, 6]: 1.8
7 | C=C(C)[C@]12C[C@@H](C)[C@@]34O[C@](c5ccccc5)(O[C@@H]1C3[C@H](O)[C@@](O)(CO)[C@@H](O)[C@@]1(O)C4C=C(C)[C@@H]1O)O2 (stereo partly drawn) [Formula 7, (2S,3aR,4S,5S,6S,6aR,7S,9bR,10R,11aR)-5-(hydroxymethyl)-8,10-dimethyl-2-phenyl-11a-(prop-1-en-2-yl)-3a,3b,4,5,6,7,9a,10,11,11a-decahydro-6aH-2,9b-epoxyazuleno[5′,4′:3,4]benzo[1,2-d][1,3]dioxole-4,5,6,6a,7-pentaol] | 3410 ± 990 | 2.0 | 1.2 | 2.6 | 
8 | C=C(C)[C@]12C[C@@H](C)[C@@]34O[C@](c5ccccc5)(O[C@@H]1C3[C@@H]1O[C@]1(CO)[C@@H](O)[C@@]1(O)C4C[C@H](C)[C@@H]1O)O2 (stereo partly drawn) [Formula 8, (2S,3aR,3cS,4aR,5S,5aR,6S,7S,8bR,9R,10aR)-4a-(hydroxymethyl)-7,9-dimethyl-2-phenyl-10a-(prop-1-en-2-yl)dodecahydro-5aH-2,8b-epoxyoxireno[2″,3″:6′,7′]azuleno[5′,4′:3,4]benzo[1,2-d][1,3]dioxole-5,5a,6-triol] | 1220 ± 130 | 1.6 | 1.7 | 2.0 | Nurr1 activation (in words) ([2]; no concentration stated): better effect of increasing Nurr1 activity
9 | C=C(C)[C@]12C[C@@H](C)[C@@]34O[C@](c5ccccc5)(O[C@@H]1C3[C@@H]1O[C@]1(CO)[C@@H](O)[C@]1(O)C(=O)[C@@H](C)CC41)O2 (stereo partly drawn) [Formula 9, (2S,3aR,3cS,4aR,5S,5aS,7S,8bR,9R,10aR)-5,5a-dihydroxy-4a-(hydroxymethyl)-7,9-dimethyl-2-phenyl-10a-(prop-1-en-2-yl)dodecahydro-6H-2,8b-epoxyoxireno[2″,3″:6′,7′]azuleno[5′,4′:3,4]benzo[1,2-d][1,3]dioxol-6-one] | 1600 ± 370 | 1.5 | 1.7 | 2.4 | 
10 | C=C(C)[C@]12C[C@@H](C)[C@@]34OC(c5ccccc5)(O[C@@H]1C3[C@@H]1O[C@]1(CO)[C@@H](O)[C@]13OC(=O)O[C@H]1[C@@H](C)CC43)O2 (some centres unmarked) [Formula 10, genkwanin I] | 7790 ± 910 |  |  |  | Nurr1 activity (luciferase), multiple of 0.1% DMSO control ([1]; High concentration = 100 μM (Table 1)): 1.1; Nurr1 activity (luciferase), multiple of 0.1% DMSO control ([1]; Low concentration = 1 μM (Table 1)): 1.8; Nurr1 activity (luciferase), multiple of 0.1% DMSO control ([1]; Mid concentration = 10 μM (Table 1)): 1.9
11 | CN(C)c1ccc(O)c2c1C[C@H]1C[C@H]3[C@H](N(C)C)C(O)=C(C(N)=O)C(=O)[C@@]3(O)C(O)=C1C2=O [Minocycline, reference compound] | 21300 ± 480 |  |  |  | 
12 | C=C(C)[C@]12C[C@@H](C)[C@@]34O[C@](c5ccccc5)(O[C@@H]1C3[C@@H]1O[C@]1(CO)[C@@H](O)[C@@]1(O)C4C[C@H](C)[C@@H]1OC(=O)/C=C/C=C/CCCCC)O2 (stereo partly drawn) [compound 12, (2S,3aR,3cS,4aR,5S,5aS,6S,7S,8bR,9R,10aR)-5,5a-dihydroxy-4a-(hydroxymethyl)-7,9-dimethyl-2-phenyl-10a-(prop-1-en-2-yl)dodecahydro-6H-2,8b-epoxyoxireno[2″,3″:6′,7′]azuleno[5′,4′:3,4]benzo[1,2-d][1,3]dioxol-6-yl (2E,4E)-deca-2,4-dienoate] |  |  |  |  | Nurr1 activity (Table 3), relative to control treatment ([1]; 0.03 μM): 1.4 ± 0.18; Nurr1 activity (Table 3), relative to control treatment ([1]; 0.1 μM): **1.29 ± 0.04; Nurr1 activity (Table 3), relative to control treatment ([1]; 0.3 μM): *1.33 ± 0.06; Nurr1 activity (Table 3), relative to control treatment ([1]; 1 μM): *1.62 ± 0.21; IC50 ([3]; BV-2 cells, LPS 24 hours, nitrite by Griess reagent, read-out: IC50, inhibition of nitric oxide production (Table 5)): 2300 nM
13 | C=C(C)[C@@]12O[C@@]3(/C=C/C=C/CCCCC)O[C@@H]1[C@@H]1[C@@H]4O[C@]4(CO)[C@@H](O)[C@]4(O)C(=O)C(C)=C[C@H]4[C@@]1(O3)[C@H](C)[C@H]2OC(C)=O [compound 15, prostratin Q] |  |  |  |  | Nurr1 activity (Table 3), relative to control treatment ([1]; 0.03 μM): 1.17 ± 0.22; Nurr1 activity (Table 3), relative to control treatment ([1]; 0.1 μM): 1.28 ± 0.35; Nurr1 activity (Table 3), relative to control treatment ([1]; 0.3 μM): **1.59 ± 0.08; Nurr1 activity (Table 3), relative to control treatment ([1]; 1 μM): *2.12 ± 0.37; IC50 ([3]; BV-2, 24 h, read-out: IC50, inhibition of nitric oxide production (Table 5)): 3730 nM
